Source: ChEMBL document CHEMBL1134583, “Synthesis and biological activity of D- and L-chiro-inositol 2,3,4,5-tetrakisphosphate: design of a novel and potent inhibitor of Ins(3,4,5,6)P4 1-kinase/Ins(1,3,4)P3 5/6-kinase” (J Med Chem, 2001)
Several values for one entry are separate records, joined by “and”; a condition that tells them apart may be missing. Identical values can stand only once.

Tests used:
[1] = Inhibition against Inositol (3,4,5,6)P4 1-kinase from bovine aorta; parameters: species or system Bos taurus
[2] = Inhibition of Inositol (3,4,5,6)P4 1-kinase from bovine aorta; parameters: species or system Bos taurus

SMILES | IC50 [1] | IC50 [2]
O=P(O)(O)OC1C(OP(=O)(O)O)[C@@H](O)[C@H](OP(=O)(O)O)C(OP(=O)(O)O)[C@@H]1O (stereo not given in full) | 14.5 µM | 
O=P(O)(O)O[C@H]1[C@H](OP(=O)(O)O)[C@@H](OP(=O)(O)O)[C@@H](O)[C@H](O)[C@H]1OP(=O)(O)O (stereo in doubt; 3) | 1.5 µM | 
O=P(O)(O)OC1C(OP(=O)(O)O)[C@H](OP(=O)(O)O)[C@H](O)C(O)[C@@H]1O (stereo not given in full) | 4.2 µM | 
O=P(O)(O)O[C@H]1[C@H](O)[C@@H](OP(=O)(O)O)[C@H](OP(=O)(O)O)[C@@H](OP(=O)(O)O)[C@H]1O (stereo in doubt; 13) | 16.7 µM | 
O=P(O)(O)OC1[C@H](O)C(O)C(OP(=O)(O)O)[C@H](O)[C@@H]1OP(=O)(O)O (stereo not given in full) | > 30 µM | 
O=P(O)(O)O[C@H]1[C@H](O)[C@@H](OP(=O)(O)O)[C@H](OP(=O)(O)O)[C@@H](OP(=O)(O)O)[C@H]1O (stereo in doubt; 14) | 9 µM | 
O=P(O)(O)OC1C(OP(=O)(O)O)[C@H](O)[C@H](OP(=O)(O)O)C(O)[C@@H]1O (stereo not given in full) | 0.7 µM | 
O=P(O)(O)O[C@@H]1[C@@H](OP(=O)(O)O)[C@@H](OP(=O)(O)O)[C@@H](O)[C@@H](O)[C@@H]1OP(=O)(O)O | > 30 µM | 
O=P(O)(O)OC1C(OP(=O)(O)O)[C@H](O)[C@H](O)C(OP(=O)(O)O)[C@@H]1O (stereo not given in full) | 0.17 µM and 0.2 µM | 0.28 µM
O=P(O)(O)O[C@@H]1[C@@H](OP(=O)(O)O)[C@@H](OP(=O)(O)O)[C@H](O)[C@@H](O)[C@@H]1OP(=O)(O)O | > 30 µM | 
O=P(O)(O)O[C@@H]1[C@H](O)[C@H](O)[C@@H](OP(=O)(O)O)[C@H](OP(=O)(O)O)[C@H]1O [INS(1,4,5)P3] | 48 µM | 
O=P(O)(O)O[C@H]1[C@H](OP(=O)(O)O)[C@@H](OP(=O)(O)O)[C@@H](O)[C@H](O)[C@H]1OP(=O)(O)O (stereo in doubt; 12) | 1.6 µM | 
O=P(O)(O)OC1C(O)[C@H](O)[C@H](OP(=O)(O)O)C(OP(=O)(O)O)[C@@H]1O (stereo not given in full) | 17 µM | 
O=P(O)(O)OC1C(OP(=O)(O)O)[C@H](OP(=O)(O)O)[C@H](OP(=O)(O)O)C(OP(=O)(O)O)[C@@H]1O (stereo not given in full) [IONOSITOL (1,3,4,5,6) P5] | 15 µM | 
